Entries after “also recorded” stand apart in the source; their conditions may differ.
System: HCC1806 cells
Assay: TMT MS quantitative proteomics of live cells treated with FragTAC probes (HCC1806)
Assay type: cell-based, Homo Sapiens
Conditions: TMT proteomics, targets with 2 unique peptides or more and depleted 2-fold or more relative to DMSO control (P value <0.05)
Protocol: Mammalian cell culture: MDA-MB-231 cells (ATCC) were maintained in DMEM supplemented with 10% (v/v) fetal bovine serum (FBS), 1% (v/v) penicillin/streptomycin, and 2 mM glutamine. HCC1806 cells (ATCC) were maintained in RPMI supplemented with 10% (v/v) fetal bovine serum (FBS), 1% (v/v) penicillin/streptomycin, and 2 mM glutamine. All cell lines were grown at 37° C. in a humidified 5% CO2 atmosphere.
Treatment of Live Cells with FragTAC Probes: Separate 6 cm (for gel-based analyses) or 10 cm (for MS-based analyses) dishes of MDA-MB-231 cells or HCC1806 cells were grown to 80-95% confluency with DMEM media and RPMI media respectively. The growth medium was aspirated, and the cells were washed with Dulbecco's phosphate buffered saline (DPBS). The cells were incubated with serum-free media containing fragment probes (200 μM) or control probes (200 μM) for 6 hours at 37° C. under a 5% CO2 atmosphere. The cultures were scraped, washed with cold DPBS, and collected into 15 mL centrifuge tubes, then transferred to 1.5 mL Eppendorf tubes. The cell suspensions were centrifuged (1,400 g, 3 min) and the pellets were stored at −80° C. until the next stage of processing.
Sample preparation for TMT MS Quantitative Proteomics: For treatment of cell lysates, cells were collected, cell pellets were resuspended in 100 μL DPBS containing 1× Halt protease inhibitor cocktail, and lysed by sonication (15 ms on, 40 ms off, 15% amplitude, 1 s total). Protein concentrations were normalized (2 mg/mL in 100 μL with cold DPBS) using the Lowry Protein Assay (Pierce). Urea (48 mg) was weighed for each sample in 2 mL LoBind Eppendorf tubes and cell lysates (100 μL=200 μg) were added (final urea concentration=8 M). Pellets were resuspended in a freshly prepared 1:1 solution (50 μL) TCEP (200 mM in DPBS) and K2CO3 (600 mM in DPBS) and incubated (30 min, 37° C.) while shaking. After reaction, a solution of freshly prepared iodoacetamide (70 μL, 400 mM in DPBS) was added and incubated for 30 min at room temperature while protected from light. After reaction, 1.8 mL of cold 3:1:2 MeOH/CHCl3/H2O solution was added to each tube, and the samples were centrifuged (10,000×g, 10 min, 4° C.), forming a disc. The supernatant was carefully removed, MeOH (600 μL) was added, samples were centrifuged as previously described and the supernatant was removed. Cell pellets were resuspended in TEAB (160 μL, 100 mM, pH 8.5) and sonicated as described previously. Endoproteinase LysC (20 μL, ½ vial, 10 μg dissolved in 220 μL of 100 mM TEAB pH 8.5) was added to each and incubated at 37° C. for 2 h with shaking. Sequencing-grade modified porcine trypsin (20 μL, 1 vial, 20 μg dissolved in 220 μL of 100 mM TEAB pH 8.5), a solution of Protease Max (2 μL, 1% (w/v) in 100 mM TEAB pH 8.5) and a solution of CaCl2) (2 μL, 100 mM) were added to the samples and incubated at 37° C. overnight (14 h) with shaking. The digest was separated by centrifugation (12,000×g, 10 min, 4° C.). Peptide concentration was determined using Pierce Quantitative Fluorometric Peptide Assay Kit (Thermo Fisher Scientific, 23290) according to manufacturer's instructions. MS-grade acetonitrile (12.5 μL) was added to each and samples were labeled with respective TMT 10 plex isotope (8 μL, 20 μg/μL) for 1 h with occasional vortexing at RT. To quench, hydroxylamine (3 μL, 5% v/v) was added to each sample, vortexed, and incubated for 15 min at RT. Formic acid (5 μL) was added to each tube to acidify and the samples were dried under vacuum centrifugation. The samples were combined by redissolving the contents of one tube in a solution of trifluoroacetic acid (TFA, 400 μL, 0.1% in water) and transferred into each sample until all samples were redissolved. The stepwise process was repeated with formic acid (Buffer A, 200 μL, 0.1% in water) for a final volume of 600 μL. […]

Structure (SMILES)	Downregulated proteins targeted by FragTAC probes (protein listed for the probe code) (cell line not given)	Proteins targeted (downregulated) by FragTAC probe (value = downregulated protein)
Cc1ncsc1-c1ccc(CNC(=O)[C@@H]2C[C@@H](O)CN2C(=O)[C@@H](NC(=O)CCOCCOCCC(=O)NCCc2ccc3c(c2)NC(=O)CCC3)C(C)(C)C)cc1 [LPC034, (2S,4R)-1-((S)-2-(tert-butyl)-4,13-dioxo-16-(2-oxo-2,3,4,5-tetrahydro-1H-benzo[b]azepin-8-yl)-7,10-dioxa-3,14-diazahexadecanoyl)-4-hydroxy-N-(4-(4-methylthiazol-5-yl)benzyl)pyrrolidine-2-carboxamide]	KRT10 and KRT2	–
Cc1ncsc1-c1ccc(CNC(=O)[C@@H]2C[C@@H](O)CN2C(=O)[C@@H](NC(=O)CCOCCOCCC(=O)N[C@H]2CCCc3ccccc32)C(C)(C)C)cc1 [LPC049, (2S,4R)-1-((S)-3,3-dimethyl-2-(3-(2-(3-oxo-3-(((S)-1,2,3,4-tetrahydronaphthalen-1-yl)amino)propoxy)ethoxy)propanamido)butanoyl)-4-hydroxy-N-(4-(4-methylthiazol-5-yl)benzyl)pyrrolidine-2-carboxamide]	–	TMBIM6; also recorded: TOR4A

— patent US20250276069A1, “HETEROBIFUNCTIONAL COMPOSITIONS FOR TARGETED PROTEIN DEGRADATION AND METHODS FOR THEIR USE” (THE SCRIPPS RESEARCH INSTITUTE, priority 2021, published 2025)
